Publication PMC5354820, “Novel PARP1/2 inhibitor mefuparib hydrochloride elicits potent in vitro and in vivo anticancer activity, characteristic of high tissue distribution” (Oncotarget, 2016)
Read-outs that look alike come from different tables or passages of the source.

Assays:
PARP2 = PARP2 (Homo sapiens, UniProt Q9UGN5); assay: biotinylated NAD+-based luminescence assay, PARP2; type: biochemical
MDA-MB-436 cells = assay: Proliferative inhibition assay, MDA-MB-436; type: cell-based; conditions: Homo sapiens, 168 h; MDA-MB-436, BRCA1−/−; 7 days, CCK8; read-out: IC50 (mean ± SD)
Protocol: (§2) Cells cultured in 96-well plates were treated with PARP inhibitors alone or in combination with the indicated anticancer drugs for 3 days (Chinese hamster cells and Ewing sarcoma cells) or 7 days (all the other cells). Then the cells were subjected to the Cell Counting Kit 8 (CCK8) assays (Chinese hamster cells, Ewing sarcoma cells, HCC1937 and MDA-MB-436 cells) or by Sulforhodamine B (SRB) assays (all the other cells) as described previously [18, 19]. […] The averaged IC50 values (mean ± SD) were determined with the Logit method from three independent tests.

HCC1937 cells = assay: Proliferative inhibition assay, HCC1937; type: cell-based; conditions: Homo sapiens, 168 h; HCC1937, BRCA1−/−; 7 days, CCK8; read-out: IC50 (mean ± SD)
Protocol: as §2

U-87 MG cells = assay: Proliferative inhibition assay, U-87 MG; type: cell-based; conditions: Homo sapiens, 168 h, PTEN−/−, 7 days, SRB, read-out: IC50 (mean ± SD)
SK-ES-1 cells = assay: Proliferative inhibition assay, SK-ES-1; type: cell-based; conditions: Homo sapiens, SK-ES1, 72 h; SK-ES-1, EWS-FLI1; 3 days, CCK8; read-out: IC50 (mean ± SD)
Protocol: as §2

[1] = Metabolic stability in monkey liver microsomes; type: in vitro ADME; conditions: 3.0 μM MPH
Protocol: (§1) Following the incubation at 37°C for the indicated time (for the metabolic stability analysis) or 60 min (for the metabolite profile analysis), reactions were terminated by addition of 100 μl ice-cold acetonitrile.

[2] = Metabolic stability in dog liver microsomes; type: in vitro ADME; conditions: 3.0 μM MPH
Protocol: as §1

[3] = Metabolic stability in mouse liver microsomes; type: in vitro ADME; conditions: 3.0 μM MPH
Protocol: as §1

[4] = Pharmacokinetics in SD rats; type: in vivo; conditions: rat, plasma; for MRT inf: read-out: MRT0-∞
Source text: SD rats and cynomolgus monkeys were used to do the in vivo pharmacokinetic studies.

[5] = Tissue distribution in rats; type: in vivo; conditions: 20 mg/kg oral
[6] = system: PARP1-deficient RD-ES cells; assay: Cell viability in PARP1-deficient RD-ES cells (TALEN); conditions: 72 h; PARP1-deficient clones versus wild-type RD-ES
Protocol: RD-ES cells were transduced with a TALEN plasmid specifically targeting PARP1 gene. The expression of PARP1 protein was evaluated
by Western blotting and compared with wild-type (WT). #N2-9 and #N2-13 are stable PARP1-knockdown clones derived from RD-ES

[7] = SD, iv, rats, i.v. bolus 5 mg/kg
[8] = Sprague-Dawley (SD), rats, oral 10 mg/kg

Chain of PARP2 (Q9UGN5 whole entry): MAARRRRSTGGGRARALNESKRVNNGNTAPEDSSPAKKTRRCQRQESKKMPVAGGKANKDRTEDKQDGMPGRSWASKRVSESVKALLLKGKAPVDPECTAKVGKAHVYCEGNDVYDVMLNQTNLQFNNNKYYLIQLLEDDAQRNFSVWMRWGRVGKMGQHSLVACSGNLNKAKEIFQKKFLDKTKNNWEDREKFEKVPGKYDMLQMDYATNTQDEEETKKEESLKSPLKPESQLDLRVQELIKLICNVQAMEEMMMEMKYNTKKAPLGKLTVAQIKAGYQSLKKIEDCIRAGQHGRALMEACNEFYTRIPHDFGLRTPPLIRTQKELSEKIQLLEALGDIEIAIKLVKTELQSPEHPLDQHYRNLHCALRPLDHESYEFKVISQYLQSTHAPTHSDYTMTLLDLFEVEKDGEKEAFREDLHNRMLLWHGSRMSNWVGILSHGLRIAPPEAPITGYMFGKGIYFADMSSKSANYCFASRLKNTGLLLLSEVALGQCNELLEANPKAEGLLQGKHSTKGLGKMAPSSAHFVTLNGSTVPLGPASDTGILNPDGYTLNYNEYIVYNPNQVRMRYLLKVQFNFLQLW

## CNCc1ccc(-c2cc3cc(F)cc(C(N)=O)c3o2)cc1 [MPH, 5-fluoro-2-(4-((methylamino)methyl)phenyl)benzofuran-7-carboxamide]
PARP2
  IC50: 1.9 nM
MDA-MB-436 cells
  IC50: 120 ± 10 nM
HCC1937 cells
  IC50: 3610 ± 470 nM
U-87 MG cells
  IC50: 2890 ± 620 nM
SK-ES-1 cells
  IC50: 1820 ± 270 nM
[1]
  remaining amount after 60-min incubation: about 90%
[2]
  remaining amount after 60-min incubation: nearly no remaining amount
[3]
  remaining amount after 60-min incubation: 63.6%
[4]; [7]
  AUC(0-inf): 487 ± 36 ng·h/mL
  AUC(0-t): 449 ± 49 ng·h/mL
  clearance: 153 mL/min/kg
  MRT inf: 1.55 ± 0.04 h
[4]; SD, iv, rats, i.v. bolus 5 mg/kg, read-out: t1/2 (converted)
  half-life: 1.25 ± 0.07 h
[4]; SD, po, 20 mg/kg, rats, oral 20 mg/kg, read-out: F
  bioavailability: 91%
[4]; SD, po, 40 mg/kg, rats, oral 40 mg/kg, read-out: F
  bioavailability: 112%
[4]; SD, rats, oral 20 mg/kg
  AUC(0-inf): 1670 ± 639 ng·h/mL
  MRT inf: 3.54 ± 0.5 h
[4]; SD, rats, oral 20 mg/kg, read-out: t1/2 (converted)
  half-life: 1.15 ± 0.13 h
[4]; SD, rats, oral 40 mg/kg
  AUC(0-inf): 4040 ± 1620 ng·h/mL
  AUC(0-t): 4010 ± 1620 ng·h/mL
  MRT inf: 4.28 ± 0.39 h
[4]; SD, rats, oral 40 mg/kg, read-out: Cmax
  Cmax: 725 ± 296 ng/mL
[4]; SD, rats, oral 40 mg/kg, read-out: Tmax
  Tmax: 2.5 h
[4]; SD, rats, oral 40 mg/kg, read-out: t1/2 (converted)
  half-life: 1.3 ± 0.24 h
[4]; Sprague-Dawley (SD), po, 10 mg/kg, rats, oral 10 mg/kg, read-out: F
  bioavailability: 46.4%
[4]; [8]
  AUC(0-inf): 430 ± 121 ng·h/mL
  AUC(0-t): 416 ± 123 ng·h/mL
  MRT inf: 3.16 ± 0.54 h
[4]; Sprague-Dawley (SD), rats, oral 10 mg/kg, read-out: Cmax
  Cmax: 116 ± 39 ng/mL
[4]; Sprague-Dawley (SD), rats, oral 10 mg/kg, read-out: Tmax
  Tmax: 3 h
[4]; Sprague-Dawley (SD), rats, oral 10 mg/kg, read-out: t1/2 (converted)
  half-life: 1.07 ± 0.15 h
[4]; Sprague-Dawley (SD), rats, oral 20 mg/kg
  AUC(0-t): 1630 ± 643 ng·h/mL
[4]; Sprague-Dawley (SD), rats, oral 20 mg/kg, read-out: Cmax
  Cmax: 368 ± 157 ng/mL
[4]; Sprague-Dawley (SD), rats, oral 20 mg/kg, read-out: Tmax
  Tmax: 3.5 h
[4]; Sprague-Dawley, oral doses of 20 mg/kg or above, read-out: plasma Cmax
  Cmax: > 1000 nM
[4]; Sprague-Dawley, single-dose oral, different doses, read-out: average plasma Tmax
  Tmax: 2 to 4 h
[4]; Sprague-Dawley, iv, rats, i.v. bolus 5 mg/kg, read-out: Vss
  Vd: 14.2 ± 1.1 L/kg
[4]; Sprague-Dawley, po, rats, oral, over the doses, read-out: bioavailability
  bioavailability: 40 to 100%
[4]; Sprague-Dawley, po, rats, read-out: average t1/2 (converted)
  half-life: 1.2 h
[5]
  entry into the brain: easily enters into the brain tissue through the blood-brain barrier
[5]; 3 h
  concentration in brain compared with the plasma: 10 fold
  concentration in colon higher than in the plasma: 18 times
  concentration in fat tissue compared with the plasma: 7 fold
  concentration in lung compared with the plasma: 188 fold
  concentration in ovary higher than in the plasma: 35 times
  concentration in pancreas higher than in the plasma: 33 times
  concentration in uterus higher than in the plasma: 19 times
[5]; 3 h, 18 tissues
  average concentration in tissues higher than in the plasma: 33 fold
[5]; Sprague-Dawley, rat, tissues
  Tmax: 3 h
[6]
  increase of IC50 in PARP1-deficient RD-ES cells versus wild-type cells: 5-7 fold
